“And” between values parts separate entries of the source, which are not always exact repeats. Equal entries are not always repeated.
Assays:
[1] = tested on: PC-3 PIP/flu tumor-bearing mice; assay: Biodistribution study in PC-3 PIP/flu tumor-bearing mice; assay type: in vivo, athymic nude Balb/c mice; conditions: for Blood / Bone / Heart / Intestines / Kidneys / Liver / Lung / Muscle / Salivary glands / Spleen / Stomach / Tumor-to-blood / Tumor-to-kidney / Tumor-to-liver: PC-3 PIP/flu tumor-bearing mice; for PC-3 flu Tumor: PSMA-negative tumor xenograft; for PC-3 flu Tumor / PC-3 PIP Tumor: mice; for PC-3 PIP Tumor: PSMA-positive tumor xenograft
Protocol: (§1) In vivo experiments were approved by the local veterinarian department and conducted in accordance with the Swiss law of animal protection. Mice were obtained from Charles River Laboratories, Sulzfeld, Germany, at the age of 5-6 weeks. Female, athymic nude Balb/c mice were subcutaneously inoculated with PSMA-positive PC-3 PIP cells (6×10^6 cells in 100 μL Hank's balanced salt solution (HBSS) with Ca^2+/Mg^2+) on the right shoulder and with PSMA-negative PC-3 flu cells (5×10^6 cells in 100 μL HBSS Ca^2+/Mg^2+) on the left shoulder. Two weeks later, the tumors reached a size of about 80-300 mm^3 suitable for the performance of the biodistribution studies.
Biodistribution studies were performed 12-15 days after PC-3 PIP/flu tumor cell inoculation. […] The radioligands were injected in a lateral tail vein in a volume of 100-200 μL. Mice were euthanized at different time points after injection (p.i.) of the radioligands. Selected tissues and organs were collected, weighed and measured using a γ-counter. The results were decay-corrected and listed as a percentage of the injected activity per gram of tissue mass (% IA/g) (Table 3 and 4).
Mice were obtained from Charles River Laboratories, Sulzfeld, Germany, at the age of 5-6 weeks. Female, athymic nude BALB/c mice were subcutaneously inoculated with PSMA-positive PC-3 PIP cells (6×10^6 cells in 100 μL Hank's balanced salt solution (HBSS)) on the right shoulder and with PSMA-negative PC-3 flu cells (5×10^6 cells in 100 μL HBSS) on the left shoulder. Two weeks later, the tumors reached a size of about 80-300 mm^3 suitable for the performance of the biodistribution and imaging studies.
Biodistribution studies were performed 12-15 days after PC-3 PIP/flu tumor cell inoculation. ^177Lu-Ibu-sPSMA was diluted in 0.9% NaCl containing 0.05% bovine serum albumin (BSA) to prevent adhesion to the vial and syringe material. The radioligand was injected in a lateral tail vein in a volume of 100 μL. Mice were euthanized at different time points after injection (p.i.) of the radioligand. Selected tissues and organs were collected, weighed and measured using a γ-counter. The results were decay-corrected and listed as a percentage of the injected activity per gram of tissue mass (% IA/g) (Table 6, FIG. 18).

[2] = Whole-body activity measurements, tumor-bearing mice; assay type: in vivo, athymic nude Balb/c mice; conditions: 4 h p.i., 30 MBq, 1 nmol i.v., activity right after injection = 100%
Protocol: as §1, with “imaging” for “biodistribution”
The single radioligands (specific activity: 30 MBq/nmol) were diluted in 0.9% NaCl containing 0.05% bovine serum albumin (BSA) and i.v. injected into PC-3 PIP/flu tumor bearing mice (30 MBq, 1 nmol, 100 μL) for SPECT/CT imaging purposes. The mice were measured in a dose calibrator at 4 h, 24 h, 48 h and 72 h p.i., respectively.

| SMILES | Blood ([1]; 4 h p.i.) [% IA/g] | Bone ([1]; 4 h p.i.) [% IA/g] | Heart ([1]; 4 h p.i.) [% IA/g] | Intestines ([1]; 4 h p.i.) [% IA/g] | Kidneys ([1]; 4 h p.i.) [% IA/g] | Liver ([1]; 4 h p.i.) [% IA/g] | Lung ([1]; 4 h p.i.) [% IA/g] | Muscle ([1]; 4 h p.i.) [% IA/g] | Salivary glands ([1]; 4 h p.i.) [% IA/g] | Spleen ([1]; 4 h p.i.) [% IA/g] | Stomach ([1]; 4 h p.i.) [% IA/g] | Tumor-to-blood ([1]; 4 h p.i.) | Tumor-to-kidney ([1]; 4 h p.i.) | Tumor-to-liver ([1]; 4 h p.i.) | PC-3 flu Tumor ([1]; 4 h p.i.) [% IA/g] | PC-3 PIP Tumor ([1]; 4 h p.i.) [% IA/g] | Bone ([1]; 24 h p.i.) [% IA/g] | Heart ([1]; 24 h p.i.) [% IA/g] | Intestines ([1]; 24 h p.i.) [% IA/g] | Kidneys ([1]; 24 h p.i.) [% IA/g] | other results |
| --- | --- | --- | --- | --- | --- | --- | --- | --- | --- | --- | --- | --- | --- | --- | --- | --- | --- | --- | --- | --- | --- |
| CC(C)Cc1ccc(C(C)C(=O)NC(CC(N)=O)C(=O)NCCCCC(NC(=O)CN2CCN(CC(=O)O)CCN(CC(=O)O)CCN(CC(=O)O)CC2)C(=O)NCC2CCC(C(=O)NC(Cc3ccc4ccccc4c3)C(=O)NCCCCC(NC(=O)NC(CCC(=O)O)C(=O)O)C(=O)O)CC2)cc1 (centres unmarked) [^177Lu-Ibu-N-PSMA, metal not drawn] | 3.58 ± 1.39 | 0.56 ± 0.22 | 1.23 ± 0.61 | 0.50 ± 0.18 | 27.1 ± 8.37 | 1.27 ± 0.55 | 2.20 ± 0.95 | 0.47 ± 0.19 | 0.94 ± 0.38 | 1.40 ± 0.75 | 0.51 ± 0.23 | 20.1 ± 6.22 | 2.48 ± 0.11 | 18.2 ± 2.70 | 1.15 ± 0.52 | 65.4 ± 15.6 | 0.08 ± 0.02 | 0.12 ± 0.03 | 0.09 ± 0.02 | 8.02±1.13 | Liver ([1]; 24 h p.i.): 0.32 ± 0.05 % IA/g; Lung ([1]; 24 h p.i.): 0.24 ± 0.06 % IA/g; Muscle ([1]; 24 h p.i.): 0.06 ± 0.02 % IA/g; Salivary glands ([1]; 24 h p.i.): 0.57 ± 0.35 % IA/g; Spleen ([1]; 24 h p.i.): 0.24 ± 0.06 % IA/g; Stomach ([1]; 24 h p.i.): 0.17 ± 0.09 % IA/g; Tumor-to-blood ([1]; 24 h p.i.): 227 ± 41.7; Tumor-to-kidney ([1]; 24 h p.i.): 6.90 ± 2.43; Tumor-to-liver ([1]; 24 h p.i.): 182 and 182 ± 52.6; PC-3 flu Tumor ([1]; 24 h p.i.): 0.23 ± 0.01 % IA/g; PC-3 PIP Tumor ([1]; 24 h p.i.): 58.0 ± 21.0 % IA/g; whole-body retention of radioactivity [2]: 12% |
| CC(C)Cc1ccc(C(C)C(=O)NC(CC(=O)NCCCCC(NC(=O)CN2CCN(CC(=O)O)CCN(CC(=O)O)CCN(CC(=O)O)CC2)C(=O)NCC2CCC(C(=O)NC(Cc3ccc4ccccc4c3)C(=O)NCCCCC(NC(=O)NC(CCC(=O)O)C(=O)O)C(=O)O)CC2)C(=O)O)cc1 (centres unmarked) [^177Lu-Ibu-Dβ-PSMA, metal not drawn] | 13.2±1.15 | 1.87 ± 0.16 | 4.19 ± 0.23 | 1.81 ± 0.23 | 32.2 ± 2.46 | 3.87 ± 0.16 | 8.55 ± 3.30 | 1.79 ± 0.48 | 3.33 ± 0.15 | 2.60 ± 0.23 | 1.51 ± 0.18 | 5.03±0.73 | 2.06 ± 0.23 | 17.0 ± 1.73 | 3.86 ± 0.18 | 65.7 ± 7.31 | 0.26 ± 0.03 | 0.57 ± 0.02 | 0.40 ± 0.07 | 21.3 ± 1.53 | Blood ([1]; 24 h p.i.): 1.28 ± 0.05 % IA/g; Liver ([1]; 24 h p.i.): 0.69 ± 0.07 % IA/g; Lung ([1]; 24 h p.i.): 1.17 ± 0.06 % IA/g; Muscle ([1]; 24 h p.i.): 0.22 ± 0.04 % IA/g; Salivary glands ([1]; 24 h p.i.): 0.61 ± 0.02 % IA/g; Spleen ([1]; 24 h p.i.): 1.03 ± 0.08 % IA/g; Stomach ([1]; 24 h p.i.): 0.48 ± 0.13 % IA/g; Tumor-to-blood ([1]; 24 h p.i.): 83.6 ± 9.06; Tumor-to-kidney ([1]; 24 h p.i.): 4.90 ± 0.29; Tumor-to-liver ([1]; 24 h p.i.): 151 ± 3.37; PC-3 flu Tumor ([1]; 24 h p.i.): 0.79 ± 0.12 % IA/g; PC-3 PIP Tumor ([1]; 24 h p.i.): 106±9.70 % IA/g; whole-body retention of radioactivity [2]: 49% |
| CC(C)Cc1ccc(C(C)C(=O)NCCCCC(NC(=O)CN2CCN(CC(=O)O)CCN(CC(=O)O)CCN(CC(=O)O)CC2)C(=O)NCC2CCC(C(=O)NC(Cc3ccc4ccccc4c3)C(=O)NCCCCC(NC(=O)NC(CCC(=O)O)C(=O)O)C(=O)O)CC2)cc1 (centres unmarked) [^177Lu-Ibu-PSMA, metal not drawn] | 5.96 ± 1.53 | 1.01 ± 0.18 | 2.28 ± 0.68 | 1.00 ± 0.27 | 32.5 ± 0.86 | 2.77 ± 0.43 | 3.72 ± 0.73 | 0.97 ± 0.37 | 1.66 ± 0.36 | 1.76 ± 0.23 | 0.79 ± 0.26 | 14.1 ± 2.25 | 2.60 ± 0.08 | 29.7 ± 3.11 | 2.19 ± 0.52 | 81.3±6.28 | 0.20 ± 0.04 | 0.33 ± 0.06 | 0.23 ± 0.04 | 16.5 ± 1.48 | Blood ([1]; 24 h p.i.): 0.58 ± 0.09 % IA/g; Liver ([1]; 24 h p.i.): 0.91 ± 0.12 % IA/g; Lung ([1]; 24 h p.i.): 0.62 ± 0.12 % IA/g; Muscle ([1]; 24 h p.i.): 0.12 ± 0.04 % IA/g; Salivary glands ([1]; 24 h p.i.): 0.34 ± 0.07 % IA/g; Spleen ([1]; 24 h p.i.): 0.68 ± 0.15 % IA/g; Stomach ([1]; 24 h p.i.): 0.23 ± 0.02 % IA/g; Tumor-to-blood ([1]; 24 h p.i.): 149 ± 16.7; Tumor-to-kidney ([1]; 24 h p.i.): 5.36 ± 0.73; Tumor-to-liver ([1]; 24 h p.i.): 95.4 ± 10.6; PC-3 flu Tumor ([1]; 24 h p.i.): 0.58 ± 0.19 % IA/g; PC-3 PIP Tumor ([1]; 24 h p.i.): 86.8±18.0 % IA/g and 86.9 ± 18.0 % IA/g; whole-body retention of radioactivity [2]: 33% |
